{"source": "patent US20110033946A1", "about": "“DETECTION OF SHORT-CHAIN FATTY ACIDS IN BIOLOGICAL SAMPLES” (HEMAQUEST PHARMACEUTICALS, INC., priority 2009, published 2011)", "format_in_all_cases": "physicochemical", "key": {"[1]": {"assay": "Long-term freezer stability in dog plasma", "details": "approximately −70° C.", "procedure": "(§1) For the remaining validation tests, a calibration curve and triplicates QCs at the low, mid and high levels were analyzed with each sample set. The following samples were also analyzed either in conjunction with one of the precision and accuracy runs or in one of the additional validation runs: Samples from six lots of control dog plasma for specificity. Two concentration levels of unextracted QC-samples in triplicate (solvent standards) were analyzed for the evaluation of the recovery of sodium 2,2-dimethylbutyrate and DMV in dog plasma. Two levels of QC samples (Low QC and High QC in triplicate) were subjected to three freeze/thaw cycles at approximately −70° C. prior to extraction to evaluate freeze/thaw stability. Two levels of QC samples (Low QC and High QC in triplicate) were placed on the bench top for approximately 17 hours prior to extraction for the evaluation of the bench top stability. Triplicate low QC samples and triplicate high QC samples were stored for one month and three months in a freezer at approximately −70° C., and then extracted and analyzed to evaluate long term stability in dog plasma. Three aliquots of a dilution QC sample diluted 10-fold. QC-Low and QC-High plasma samples, which had been stored in a freezer at approximately −70° C. for one month and three months (99 days), were extracted in triplicate and analyzed. All CV % values and RE % values are within the acceptance criteria (≦15% and ±15% respectively). Therefore, sodium 2,2-dimethylbutyrate can be considered stable in dog plasma at approximately −70° C. for at least 99 days."}, "[2]": {"assay": "Freeze/thaw cycle stability in human plasma", "details": "three freeze/thaw cycles at approximately −70° C.", "procedure": "The following samples were also analyzed either in conjunction with one of the precision and accuracy runs or in one of the additional validation runs. Samples from six lots of control human plasma for specificity. Samples from six lots of control human plasma fortified with internal standard for specificity. Two concentration levels of unextracted QC-samples in triplicate (solvent standards) were analyzed for the evaluation of the recovery of sodium 2,2-dimethylbutyrate and DMV in human plasma. Two levels of QC samples (Low QC and High QC in triplicate) were subjected to three freeze/thaw cycles at approximately −70° C. prior to extraction to evaluate freeze/thaw stability. Two levels of QC samples (Low QC and High QC in triplicate) were placed on the bench top for approximately 17 hours prior to extraction for the evaluation of the bench top stability. Triplicate low QC samples and triplicate high QC samples were stored for one month and three months in a freezer at approximately −70° C., and then extracted and analyzed to evaluate long term stability in human plasma. Two levels of extracted QC samples (Low QC and High QC) were re-analyzed after approximately 71 hours in the autosampler at room temperature to evaluate the extract autosampler stability. Two levels of extracted QC samples (Low QC and High QC) were re-analyzed after approximately 8 hours in the freezer at approximately −20° C. to evaluate the extract freeze stability. Three aliquots of a dilution QC sample diluted 10-fold. Triplicate dilutions of the old stock solution (stored at approximately 4° C.) and new stock solutions prepared at intervals of two weeks and one month. Statistical calculations in the report tables were calculated from unrounded concentration values taken directly from the raw data. The concentration values were rounded for display purposes.\nThe stability of sodium 2,2-dimethylbutyrate in human plasma was evaluated at approximately −70° C. for three cycles using QC-Low and QC-High samples in triplicate. The freeze time was at least 12 to 24 hours, with a minimum thaw time of one hour. The CV % values for the QC-Low and QC-High stability samples are 3.3% and 9.8%, respectively. To calculate the RE %, the measured mean concentration was compared to the nominal concentration. The RE % values for the QC-Low and QC-High stability samples are 2.3% and −5.5%, respectively."}, "[3]": {"assay": "Freeze/thaw cycle stability in rat plasma", "details": "three freeze/thaw cycles at approximately −70° C.", "procedure": "as §1, with “rat” for “dog”, “specificity; Samples from six lots of control rat plasma fortified with internal standard for specificity;” for “specificity.”, “rat plasma;” for “dog plasma.”, “stability;” for “stability.”, “10-fold.” for “10-fold. QC-Low and QC-High plasma samples, which had been stored in a freezer at approximately −70° C. for one month and three months (99 days), were extracted in triplicate and analyzed. All CV % values and RE % values are within the acceptance criteria (≦15% and ±15% respectively). Therefore, sodium 2,2-dimethylbutyrate can be considered stable in dog plasma at approximately −70° C. for at least 99 days.”\nThe stability of sodium 2,2-dimethylbutyrate in rat plasma was evaluated at approximately −70° C. for three cycles using QC-Low and QC-High samples in triplicate. The freeze time was at least 12-24 hours, with a minimum thaw time of one hour. The CV % values for the QC-Low and QC-High stability samples are 13.3% and 4.6%, respectively. To calculate the RE %, the measured mean concentration was compared to the nominal concentration."}, "[4]": {"assay": "Storage stability of quality control sample in human urine at −20° C.", "details": "storage temperature of −20° C.", "procedure": "In method I, the mobile phase of liquid chromatography was run on 0.1% formic acid in acetonitrile, and the elution volume was 10 ul. In method II, the mobile phase was run in 0.1% formic acid in methanol/water (98/2, volume to volume), and the elution volume was 5 ul."}, "[5]": {"details": "1 Month Interval, QC-High, nominal 40.0 μg/mL"}, "[6]": {"details": "1 Month Interval, QC-Low, nominal 0.60 μg/mL"}, "[7]": {"details": "3 Month Interval (99 days), QC-High, nominal 40.0 μg/mL"}, "[8]": {"details": "3 Month Interval (99 days), QC-Low, nominal 0.60 μg/mL"}}, "note": "Several values for one entry are separate records, joined by “and”; a condition that tells them apart may be missing. Equal entries are not always repeated."}
{"smiles": "CCC(C)(C)C(=O)[O-].[Na+]", "note": "[Sodium 2,2-Dimethylbutyrate]", "values": [{"measurement": "Time stable in freezer", "setting": "[1]", "result": "at least 99 days"}, {"measurement": "Long-term freezer stability, Mean concentration", "setting": "[1]; [5]", "result": 36.1, "unit": "µg/mL"}, {"measurement": "Long-term freezer stability, RE % (mean vs nominal)", "setting": "[1]; [5]", "result": "−9.9", "unit": "%"}, {"measurement": "Long-term freezer stability, concentration found (replicate)", "setting": "[1]; [5]", "result": "36.4 µg/mL and 36.3 µg/mL and 35.5 µg/mL"}, {"measurement": "Long-term freezer stability, Mean concentration", "setting": "[1]; [6]", "result": 0.575, "unit": "µg/mL"}, {"measurement": "Long-term freezer stability, RE % (mean vs nominal)", "setting": "[1]; [6]", "result": "−4.2", "unit": "%"}, {"measurement": "Long-term freezer stability, concentration found (replicate)", "setting": "[1]; [6]", "result": "0.586 µg/mL and 0.567 µg/mL and 0.572 µg/mL"}, {"measurement": "Long-term freezer stability, Mean concentration", "setting": "[1]; [7]", "result": 35.0, "unit": "µg/mL"}, {"measurement": "Long-term freezer stability, RE % (mean vs nominal)", "setting": "[1]; [7]", "result": "−12.5", "unit": "%"}, {"measurement": "Long-term freezer stability, concentration found (replicate)", "setting": "[1]; [7]", "result": "36.1 µg/mL and 37.1 µg/mL and 31.7 µg/mL"}, {"measurement": "Long-term freezer stability, Mean concentration", "setting": "[1]; [8]", "result": 0.61, "unit": "µg/mL"}, {"measurement": "Long-term freezer stability, RE % (mean vs nominal)", "setting": "[1]; [8]", "result": 1.0, "unit": "%"}, {"measurement": "Long-term freezer stability, concentration found (replicate)", "setting": "[1]; [8]", "result": "0.629 µg/mL and 0.621 µg/mL and 0.568 µg/mL"}, {"measurement": "Stability after freeze/thaw cycles", "setting": "[2]", "result": "stable"}, {"measurement": "Freeze/thaw cycle stability, Mean concentration", "setting": "[2]; QC-High, nominal 40.0 μg/mL", "result": 37.8, "unit": "µg/mL"}, {"measurement": "Freeze/thaw cycle stability, RE % (mean vs nominal)", "setting": "[2]; QC-High, nominal 40.0 μg/mL", "result": "−5.5", "unit": "%"}, {"measurement": "Freeze/thaw cycle stability, concentration found (replicate)", "setting": "[2]; QC-High, nominal 40.0 μg/mL", "result": "41.9 µg/mL and 36.8 µg/mL and 34.7 µg/mL"}, {"measurement": "Freeze/thaw cycle stability, Mean concentration", "setting": "[2]; QC-Low, nominal 0.60 μg/mL", "result": 0.614, "unit": "µg/mL"}, {"measurement": "Freeze/thaw cycle stability, RE % (mean vs nominal)", "setting": "[2]; QC-Low, nominal 0.60 μg/mL", "result": 2.3, "unit": "%"}, {"measurement": "Freeze/thaw cycle stability, concentration found (replicate)", "setting": "[2]; QC-Low, nominal 0.60 μg/mL", "result": "0.615 µg/mL and 0.593 µg/mL and 0.633 µg/mL"}, {"measurement": "Stability after freeze/thaw cycles", "setting": "[3]", "result": "stable"}, {"measurement": "Freeze/thaw cycle stability, Mean concentration", "setting": "[3]; QC-High, nominal 40.0 μg/mL", "result": 41.2, "unit": "µg/mL"}, {"measurement": "Freeze/thaw cycle stability, RE % (mean vs nominal)", "setting": "[3]; QC-High, nominal 40.0 μg/mL", "result": 3.1, "unit": "%"}, {"measurement": "Freeze/thaw cycle stability, concentration found (replicate)", "setting": "[3]; QC-High, nominal 40.0 μg/mL", "result": "41.7 µg/mL and 39.2 µg/mL and 42.9 µg/mL"}, {"measurement": "Freeze/thaw cycle stability, Mean concentration", "setting": "[3]; QC-Low, nominal 0.60 μg/mL", "result": 0.575, "unit": "µg/mL"}, {"measurement": "Freeze/thaw cycle stability, RE % (mean vs nominal)", "setting": "[3]; QC-Low, nominal 0.60 μg/mL", "result": "−4.1", "unit": "%"}, {"measurement": "Freeze/thaw cycle stability, concentration found (replicate)", "setting": "[3]; QC-Low, nominal 0.60 μg/mL", "result": "0.491 µg/mL and 0.595 µg/mL and 0.640 µg/mL"}, {"measurement": "Time quality control sample is stable", "setting": "[4]", "result": "at least 111 days"}]}
